According to ChEMBL document CHEMBL1759926, “Exploring new near-infrared fluorescent disulfide-based cyclic RGD peptide analogs for potential integrin-targeted optical imaging” (Bioorg Med Chem Lett, 2011):
Bridge positions count the residues as written; N and C are the ends. Peptide text beside a SMILES is read from it. * marks the point of attachment. Cypate = CC1(C)C(/C=C/C=C/C=C/C=C2/N(CCC(=O)*)c3ccc4ccccc4c3C2(C)C)=[N+](CCC(=O)O)c2ccc3ccccc3c21

What follows are molecules tested against Integrin alpha-V/beta-3 (Homo sapiens, UniProt P05106+P06756) (assay: Displacement of [125I]echistatin from human integrin […] expressed in human A549 cells by binding assay). Settings: not given; call rule not given here.
Sequence of Integrin alpha-V/beta-3 (P05106 27-788 limits assumed): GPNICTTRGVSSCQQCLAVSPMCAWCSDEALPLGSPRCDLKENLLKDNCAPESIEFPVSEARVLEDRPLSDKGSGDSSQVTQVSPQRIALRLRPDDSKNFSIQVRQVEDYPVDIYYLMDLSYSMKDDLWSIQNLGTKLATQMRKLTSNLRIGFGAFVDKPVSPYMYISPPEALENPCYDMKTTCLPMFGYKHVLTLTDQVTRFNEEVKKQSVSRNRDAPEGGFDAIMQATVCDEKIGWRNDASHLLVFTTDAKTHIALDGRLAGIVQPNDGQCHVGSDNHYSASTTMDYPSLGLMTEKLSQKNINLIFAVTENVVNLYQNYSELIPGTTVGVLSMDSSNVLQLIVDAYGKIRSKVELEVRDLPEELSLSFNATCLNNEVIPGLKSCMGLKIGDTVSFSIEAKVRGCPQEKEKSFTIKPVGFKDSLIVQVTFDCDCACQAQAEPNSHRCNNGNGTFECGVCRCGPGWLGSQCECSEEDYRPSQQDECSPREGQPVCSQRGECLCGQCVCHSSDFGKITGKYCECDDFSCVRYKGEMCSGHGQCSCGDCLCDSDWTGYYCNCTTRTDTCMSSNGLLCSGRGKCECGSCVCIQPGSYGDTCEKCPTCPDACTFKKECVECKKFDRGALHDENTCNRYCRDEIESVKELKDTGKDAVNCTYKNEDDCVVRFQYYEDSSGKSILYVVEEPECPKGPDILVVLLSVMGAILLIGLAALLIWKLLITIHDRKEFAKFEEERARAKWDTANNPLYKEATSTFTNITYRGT
Sequence of Integrin alpha-V/beta-3 (P06756 31-889 limits assumed): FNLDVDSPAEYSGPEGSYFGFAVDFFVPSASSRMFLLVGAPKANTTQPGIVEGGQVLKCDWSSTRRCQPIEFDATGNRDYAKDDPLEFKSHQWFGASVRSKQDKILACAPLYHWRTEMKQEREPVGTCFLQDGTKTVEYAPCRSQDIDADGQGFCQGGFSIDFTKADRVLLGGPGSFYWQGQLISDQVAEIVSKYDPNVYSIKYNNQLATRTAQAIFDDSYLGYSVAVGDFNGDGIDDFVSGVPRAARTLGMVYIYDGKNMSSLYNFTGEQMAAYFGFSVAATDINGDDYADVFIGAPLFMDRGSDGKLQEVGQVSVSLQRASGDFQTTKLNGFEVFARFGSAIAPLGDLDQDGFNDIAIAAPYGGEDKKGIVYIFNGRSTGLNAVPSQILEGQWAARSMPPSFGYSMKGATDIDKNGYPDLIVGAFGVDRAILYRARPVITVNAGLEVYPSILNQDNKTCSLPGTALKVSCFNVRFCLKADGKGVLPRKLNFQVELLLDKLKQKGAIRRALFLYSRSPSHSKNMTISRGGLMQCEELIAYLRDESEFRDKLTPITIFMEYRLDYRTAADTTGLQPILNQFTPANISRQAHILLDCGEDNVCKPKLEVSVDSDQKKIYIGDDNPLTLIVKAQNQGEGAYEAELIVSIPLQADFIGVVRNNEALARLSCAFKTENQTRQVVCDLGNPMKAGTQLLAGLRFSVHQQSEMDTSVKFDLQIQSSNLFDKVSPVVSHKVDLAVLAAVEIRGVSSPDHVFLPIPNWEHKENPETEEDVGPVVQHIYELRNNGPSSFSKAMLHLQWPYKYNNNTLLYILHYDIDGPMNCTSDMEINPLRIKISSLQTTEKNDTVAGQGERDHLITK
Sequence of Integrin alpha-V/beta-3 (P06756 891-1048 limits assumed): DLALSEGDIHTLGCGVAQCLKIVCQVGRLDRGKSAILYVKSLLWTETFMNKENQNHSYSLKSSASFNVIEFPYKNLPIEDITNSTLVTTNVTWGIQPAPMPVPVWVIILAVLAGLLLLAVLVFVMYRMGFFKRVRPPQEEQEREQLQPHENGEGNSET
Assay type: cell-based

Row | IC50 | SMILES
1 | 0.72 µM | CC1(C)C(/C=C/C=C/C=C/C=C2/N(CCC(=O)NCCCC[C@@H]3NC(=O)[C@@H](Cc4ccccc4)NC(=O)[C@H](CC(=O)O)NC(=O)CNC(=O)[C@H](CCCNC(=N)N)NC3=O)c3ccc4ccccc4c3C2(C)C)=[N+](CCC(=O)O)c2ccc3ccccc3c21
2 | > 10 µM | CC(C)[C@@H]1NC(=O)[C@H](CCCNC(=N)N)NC(=O)[C@@H](NC(=O)CCN2/C(=C/C=C/C=C/C=C/C3=[N+](CCC(=O)O)c4ccc5ccccc5c4C3(C)C)C(C)(C)c3c2ccc2ccccc32)CSSC[C@@H](C(N)=O)NC(=O)[C@H](CC(=O)O)NC1=O (Cypate-CRVDC-NH2; disulfide 1-5)
3 | > 10 µM | CC1(C)C(/C=C/C=C/C=C/C=C2/N(CCC(=O)N[C@H]3CSSC[C@@H](C(N)=O)NC(=O)[C@H](CC(=O)O)NC(=O)[C@H](Cc4ccc(O)cc4)NC(=O)[C@H](CCCNC(=N)N)NC3=O)c3ccc4ccccc4c3C2(C)C)=[N+](CCC(=O)O)c2ccc3ccccc3c21 (Cypate-CRYDC-NH2; disulfide 1-5)
4 | > 10 µM | CC1(C)C(/C=C/C=C/C=C/C=C2/N(CCC(=O)N[C@H]3CSSC[C@@H](C(N)=O)NC(=O)[C@H](CC(=O)O)NC(=O)[C@@H]4CCCN4C(=O)[C@H](CCCNC(=N)N)NC3=O)c3ccc4ccccc4c3C2(C)C)=[N+](CCC(=O)O)c2ccc3ccccc3c21 (Cypate-CRPDC-NH2; disulfide 1-5)

These molecules were tested on A549 (assay: Drug uptake in human A549 cells overexpressing […] integrin at 1 uM after 4 to 24 hrs by fluorescence microscopy). Settings: a549, 1 µM.
Assay type: ADME, cell-based

Row | Drug uptake | SMILES
5 | Active | CC1(C)C(/C=C/C=C/C=C/C=C2/N(CCC(=O)NCCCC[C@@H]3NC(=O)[C@@H](Cc4ccccc4)NC(=O)[C@H](CC(=O)O)NC(=O)CNC(=O)[C@H](CCCNC(=N)N)NC3=O)c3ccc4ccccc4c3C2(C)C)=[N+](CCC(=O)O)c2ccc3ccccc3c21
6 | Active | CC1(C)C(/C=C/C=C/C=C/C=C2/N(CCC(=O)N[C@H]3CSSC[C@@H](C(N)=O)NC(=O)[C@H](CC(=O)O)NC(=O)CNC(=O)[C@H](CCCNC(=N)N)NC3=O)c3ccc4ccccc4c3C2(C)C)=[N+](CCC(=O)O)c2ccc3ccccc3c21
